Measured values from patent US7902181B2, “Compounds 010” (AstraZeneca AB, priority 2007, dated 2011).
Where a name gives a salt, the structure may show the parent alone.

Target: Recombinant Human (rh) DPP1 (Homo sapiens, UniProt P53634)
Assay: Fluorescence Assay for Recombinant Human (rh) DPP1
Type: biochemical
Conditions: rhDPP1; substrate H-Gly-Arg-AMC; pH5.0; 30 min pre-incubation, 60 min reaction at 22° C.; highest concentration 10 μM; read-out: DPP1 activity, pIC50 (converted)
Experimental: Fluorescence Assay for Recombinant Human (rh) DPP1
The activity of DPP1 was determined by measuring the enzymatic release of aminomethyl coumarin (AMC) from the peptide substrate (H-Gly-Arg-AMC), which leads to an increase in fluorescence intensity at λex=350 nm and λem=450 nm. The assay was carried out in black 384 well plates in a final volume of 50 μl at 22° C. The assay conditions contained the following: 25 mM piperazine buffer pH5.0; 50 mM NaCl, 5 mM DTT; 0.01% (v/v) Triton X-100; 100 μM H-Gly-Arg-AMC and rhDPP1 ([…]). Potential inhibitors were made up in DMSO and then diluted in the assay to give a final concentration of 1% (v/v) DMSO. A 12-point half-log dilution of the inhibitors (highest concentration 10 μM) was tested and the pIC50 determined using a 4-parameter logistic equation in a non-linear curve fitting routine. A standard DPP1 inhibitor (vinyl sulfone, see below) was used as a positive control in the assay. Routinely, inhibitors were pre-incubated with rhDPP1 for 30 min prior to the addition of the peptide substrate to start the reaction for a further 60 min at 22° C. After that the plates were immediately read in a fluorescence plate reader using the above emission and excitation wavelengths [modified from Kam, C M, Gotz, M G, Koot, G, McGuire, M J, Thiele, D L, Hudig, D & Powers, J C (2004). Arch Biochem Biophys, 427, 123-134 & McGuire, M J, Lipsky, P E & Thiele, D L (1992). Arch Biochem Biophys, 295, 280-288].

Recombinant Human (rh) DPP1, sequence (P53634 25-463): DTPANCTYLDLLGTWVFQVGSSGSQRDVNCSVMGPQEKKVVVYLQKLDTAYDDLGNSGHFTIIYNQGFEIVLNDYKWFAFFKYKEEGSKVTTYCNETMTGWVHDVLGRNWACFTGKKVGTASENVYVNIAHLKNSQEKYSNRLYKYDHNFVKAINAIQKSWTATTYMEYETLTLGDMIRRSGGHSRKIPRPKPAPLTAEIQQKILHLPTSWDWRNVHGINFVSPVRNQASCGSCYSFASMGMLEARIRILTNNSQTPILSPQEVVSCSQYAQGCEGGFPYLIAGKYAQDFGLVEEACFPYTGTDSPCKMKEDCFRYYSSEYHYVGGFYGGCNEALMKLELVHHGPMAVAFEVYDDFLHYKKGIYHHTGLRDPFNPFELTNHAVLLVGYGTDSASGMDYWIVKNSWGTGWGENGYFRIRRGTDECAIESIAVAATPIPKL

| SMILES | IC50 [nM] |
| --- | --- |
| N#C[C@H](Cc1ccc(-c2ccc3c(c2)OCCO3)cc1)NC(=O)[C@@H]1CCCCN1 [Example 35, (2S)-N-[(1S)-1-Cyano-2-[4-(2,5-dioxabicyclo[4.4.0]deca-7,9,11-trien-8-yl)phenyl]ethyl]piperidine-2-carboxamide trifluoroacetate] | 251 |
| N#C[C@H](Cc1ccc(-c2ccc(CN)cc2)cc1)NC(=O)[C@@H]1CCCCN1 [Example 36, (2S)-N-[(1S)-2-[4-[4-(Aminomethyl)phenyl]phenyl]-1-cyano-ethyl]piperidine-2-carboxamide trifluoroacetate] | 251 |
| CN(C)c1ncc(-c2ccc(C[C@@H](C#N)NC(=O)[C@@H]3CCCCN3)cc2)cn1 [Example 37, (2S)-N-[(1S)-1-Cyano-2-[4-(2-dimethylaminopyrimidin-5-yl)phenyl]ethyl]piperidine-2-carboxamide trifluoroacetate] | 316 |
| Cc1cscc1-c1ccc(C[C@@H](C#N)NC(=O)[C@@H]2CCCCN2)cc1 [Example 38, (2S)-N-[(1S)-1-Cyano-2-[4-(4-methylthiophen-3-yl)phenyl]ethyl]piperidine-2-carboxamide trifluoroacetate] | 316 |
| COc1ncccc1-c1ccc(C[C@@H](C#N)NC(=O)[C@@H]2CCCCN2)cc1 [Example 40, (2S)-N-[(1S)-1-Cyano-2-[4-(2-methoxypyridin-3-yl)phenyl]ethyl]piperidine-2-carboxamide trifluoroacetate] | 316 |
| Cn1nccc1-c1ccc(C[C@@H](C#N)NC(=O)[C@@H]2CCCCN2)cc1 [Example 41, (2S)-N-[(1S)-1-Cyano-2-[4-(2-methylpyrazol-3-yl)phenyl]ethyl]piperidine-2-carboxamide trifluoroacetate] | 398 |
| CN(C)C(=O)c1cccc(-c2ccc(C[C@@H](C#N)NC(=O)[C@@H]3CCCCN3)cc2)c1 [Example 42, (2S)-N-[(1S)-1-Cyano-2-[4-[3-(dimethylcarbamoyl)phe-nyl]phenyl]ethyl]piperi-dine-2-carboxamide trifluoroacetate] | 501 |
| CCS(=O)(=O)c1ccc(-c2ccc(C[C@@H](C#N)NC(=O)[C@@H]3CCCCN3)cc2)c(C)c1 [Example 43, (2S)-N-[(1S)-1-Cyano-2-[4-(4-ethylsulfonyl-2-methyl-phenyl)phenyl]ethyl]pipe-ridine-2-carboxamide trifluoroacetate] | 631 |
| COc1c(F)cc(F)cc1-c1ccc(C[C@@H](C#N)NC(=O)[C@@H]2CCCCN2)cc1 [Example 44, (2S)-N-[(1S)-1-Cyano-2-[4-(3,5-difluoro-2-methoxy-phenyl)phenyl]ethyl]pipe-ridine-2-carboxamide trifluoroacetate] | 631 |

Second part, the molecule after the results:

| IC50 [nM] | SMILES |
| --- | --- |
| 158 | COc1ccc(-c2ccc(C[C@@H](C#N)NC(=O)[C@@H]3CCCCN3)cc2)cc1OC [Example 32, (2S)-N-[(1S)-1-Cyano-2-[4-(3,4-dimethoxyphenyl)phenyl]ethyl]piperidine-2-carboxamide trifluoroacetate] |
| 200 | COc1ccc(-c2ccc(C[C@@H](C#N)NC(=O)[C@@H]3CCCCN3)cc2)c(OC)c1 [Example 33, (2S)-N-[(1S)-1-Cyano-2-[4-(2,4-dimethoxyphenyl)phenyl]ethyl]piperidine-2-carboxamide trifluoroacetate] |
| 200 | N#C[C@H](Cc1ccc(-c2cccc(C(N)=O)c2)cc1)NC(=O)[C@@H]1CCCCN1 [Example 34, (2S)-N-[(1S)-2-[4-(3-Carbamoylphenyl)phenyl]-1-cyano-ethyl]piperidine-2-carboxamide trifluoroacetate] |
| 316 | CCCOc1ccc(-c2ccc(C[C@@H](C#N)NC(=O)[C@@H]3CCCCN3)cc2)cc1F [Example 39, (2S)-N-[(1S)-1-Cyano-2-[4-(3-fluoro-4-propoxy-phenyl)phenyl]ethyl]pipe-ridine-2-carboxamide trifluoroacetate] |
| 794 | N#C[C@H](Cc1ccc(-c2cccc(CO)c2)cc1)NC(=O)[C@@H]1CCCCN1 [Example 45, (2S)-N-[(1S)-1-Cyano-2-[4-[3-(hydroxymethyl)phenyl]phenyl]ethyl]piperidine-2-carboxamide trifluoroacetate] |
